Source: PubChem BioAssay (NCI)
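Test compounds were applied to cells in 96-well plates for 48 hours at 5 doses. Here, GI50 denotes the concentration required for 50% inhibition of growth. The concentration for full growth arrest is given as TGI.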

Key:
Assay in all cases: NCI-60 cell line screen, 48 h; in the data active means GI50 below about 0.43 µM; inactive means the rest
LOX IMVI melanoma = test system: LOX IMVI melanoma
HOP-62 NSCLC = test system: HOP-62 NSCLC
SF-295 CNS = test system: SF-295 CNS
MDA-MB-435 = test system: MDA-MB-435
CAKI-1 renal = test system: CAKI-1 renal
HT29 colon = test system: HT29 colon
SN12C renal = test system: SN12C renal
OVCAR-8 ovarian = test system: OVCAR-8 ovarian
HL-60(TB) leukemia = test system: HL-60(TB) leukemia
OVCAR-4 ovarian = test system: OVCAR-4 ovarian
SF-539 CNS = test system: SF-539 CNS
T-47D breast = test system: T-47D breast
HCC-2998 colon = test system: HCC-2998 colon
A498 renal = test system: A498 renal
U251 CNS = test system: U251 CNS
CCRF-CEM leukemia = test system: CCRF-CEM leukemia
SK-MEL-5 melanoma = test system: SK-MEL-5 melanoma
OVCAR-3 ovarian = test system: OVCAR-3 ovarian
OVCAR-5 ovarian = test system: OVCAR-5 ovarian
UO-31 renal = test system: UO-31 renal
ACHN renal = test system: ACHN renal
NCI-H23 lung = test system: NCI-H23 lung
SF-268 CNS = test system: SF-268 CNS
HOP-92 NSCLC = test system: HOP-92 NSCLC
SK-MEL-28 melanoma = test system: SK-MEL-28 melanoma
SNB-19 CNS = test system: SNB-19 CNS
SNB-75 CNS = test system: SNB-75 CNS
SR leukemia = test system: SR leukemia
NCI-H226 lung = test system: NCI-H226 lung
PC-3 prostate = test system: PC-3 prostate
UACC-62 melanoma = test system: UACC-62 melanoma
EKVX NSCLC = test system: EKVX NSCLC
NCI-H522 lung = test system: NCI-H522 lung
IGROV1 ovarian = test system: IGROV1 ovarian
SW-620 colon = test system: SW-620 colon
HS 578T breast = test system: HS 578T breast
NCI-H460 lung = test system: NCI-H460 lung
SK-OV-3 ovarian = test system: SK-OV-3 ovarian
M14 melanoma = test system: M14 melanoma
MCF7 breast = test system: MCF7 breast
SK-MEL-2 melanoma = test system: SK-MEL-2 melanoma
UACC-257 melanoma = test system: UACC-257 melanoma
NCI/ADR-RES ovarian = test system: NCI/ADR-RES ovarian
A549 NSCLC = test system: A549 NSCLC
K-562 leukemia = test system: K-562 leukemia
RXF 393 renal = test system: RXF 393 renal
786-0 renal = test system: 786-0 renal
DU-145 prostate = test system: DU-145 prostate
TK-10 renal = test system: TK-10 renal
MOLT-4 leukemia = test system: MOLT-4 leukemia
MDA-MB-231 breast = test system: MDA-MB-231 breast
RPMI-8226 leukemia = test system: RPMI-8226 leukemia
HCT-116 colon = test system: HCT-116 colon
MALME-3M melanoma = test system: MALME-3M melanoma
HCT-15 colon = test system: HCT-15 colon
BT-549 breast = test system: BT-549 breast
COLO 205 colon = test system: COLO 205 colon
KM12 colon = test system: KM12 colon

CC(C)(C)OC(=O)NCCCCCCCCn1c2c(c3ccccc3c1=O)C(=O)c1ccccc1-2
> 43.6 µM: TGI (NCI-H522 lung)
> 47.7 µM: TGI (A498 renal)
> 41.6 µM: TGI (SF-295 CNS)
29.6 µM: TGI (SF-539 CNS)
> 11.4 µM: TGI (CCRF-CEM leukemia)
> 36.5 µM: TGI (CAKI-1 renal)
29.2 µM: TGI (SNB-75 CNS)
> 43.7 µM: TGI (MALME-3M melanoma)
27.5 µM: TGI (HS 578T breast) | TGI (786-0 renal)
24.5 µM: TGI (RXF 393 renal)
> 39.4 µM: TGI (OVCAR-3 ovarian) | TGI (SK-OV-3 ovarian)
19.9 µM: TGI (SK-MEL-2 melanoma)
inactive: GI50 (LOX IMVI melanoma) > 32 µM | GI50 (HOP-62 NSCLC) 11.6 µM | GI50 (SF-295 CNS) 11.1 µM | GI50 (MDA-MB-435) > 50 µM | GI50 (CAKI-1 renal) 11.8 µM | GI50 (HT29 colon) > 50 µM | GI50 (SN12C renal) > 50 µM | GI50 (OVCAR-8 ovarian) 33.9 µM | GI50 (HL-60(TB) leukemia) > 50 µM | GI50 (OVCAR-4 ovarian) > 50 µM | GI50 (SF-539 CNS) 9.64 µM | GI50 (T-47D breast) > 48 µM | GI50 (HCC-2998 colon) > 50 µM | GI50 (A498 renal) 15.5 µM | GI50 (U251 CNS) 16.7 µM | GI50 (SK-MEL-5 melanoma) > 40 µM | GI50 (OVCAR-5 ovarian) > 43 µM | GI50 (UO-31 renal) 34 µM | GI50 (ACHN renal) 10.9 µM | GI50 (NCI-H23 lung) 20.4 µM | GI50 (SF-268 CNS) 19.5 µM | GI50 (HOP-92 NSCLC) 9.05 µM | GI50 (SK-MEL-28 melanoma) > 50 µM | GI50 (SNB-19 CNS) 14.9 µM | GI50 (SNB-75 CNS) 10.6 µM | GI50 (SR leukemia) > 34.8 µM | GI50 (NCI-H226 lung) 22.3 µM | GI50 (PC-3 prostate) > 50 µM | GI50 (UACC-62 melanoma) 20.3 µM | GI50 (EKVX NSCLC) 43.5 µM | GI50 (NCI-H522 lung) 13.5 µM | GI50 (IGROV1 ovarian) 14.3 µM | GI50 (SW-620 colon) > 50 µM | GI50 (HS 578T breast) 7.04 µM | GI50 (NCI-H460 lung) > 50 µM | GI50 (SK-OV-3 ovarian) 14.4 µM | GI50 (M14 melanoma) > 50 µM | GI50 (MCF7 breast) > 50 µM | GI50 (SK-MEL-2 melanoma) 5.61 µM | GI50 (UACC-257 melanoma) > 50 µM | GI50 (NCI/ADR-RES ovarian) > 42.1 µM | GI50 (A549 NSCLC) > 50 µM | GI50 (K-562 leukemia) > 50 µM | GI50 (RXF 393 renal) 8.49 µM | GI50 (786-0 renal) 10.8 µM | GI50 (DU-145 prostate) > 50 µM | GI50 (TK-10 renal) 11.7 µM | GI50 (MOLT-4 leukemia) > 50 µM | GI50 (MDA-MB-231 breast) 13.5 µM | GI50 (RPMI-8226 leukemia) > 50 µM | GI50 (HCT-116 colon) 26.8 µM | GI50 (MALME-3M melanoma) > 15.9 µM | GI50 (HCT-15 colon) > 50 µM | GI50 (BT-549 breast) 15.6 µM | GI50 (COLO 205 colon) > 50 µM | GI50 (KM12 colon) > 40.4 µM
21 µM: TGI (HOP-92 NSCLC)
35 µM: TGI (HOP-62 NSCLC)
> 30 µM: TGI (ACHN renal)
30.7 µM: TGI (TK-10 renal)
> 47.5 µM: TGI (MDA-MB-231 breast)
> 50 µM: TGI (LOX IMVI melanoma) | TGI (MDA-MB-435) | TGI (HT29 colon) | TGI (SN12C renal) | TGI (OVCAR-8 ovarian) | TGI (HL-60(TB) leukemia) | TGI (OVCAR-4 ovarian) | TGI (T-47D breast) | TGI (HCC-2998 colon) | TGI (U251 CNS) | TGI (SK-MEL-5 melanoma) | TGI (OVCAR-5 ovarian) | TGI (UO-31 renal) | TGI (NCI-H23 lung) | TGI (SF-268 CNS) | TGI (SK-MEL-28 melanoma) | TGI (SNB-19 CNS) | TGI (SR leukemia) | TGI (NCI-H226 lung) | TGI (PC-3 prostate) | TGI (UACC-62 melanoma) | TGI (EKVX NSCLC) | TGI (IGROV1 ovarian) | TGI (SW-620 colon) | TGI (NCI-H460 lung) | TGI (M14 melanoma) | TGI (MCF7 breast) | TGI (UACC-257 melanoma) | TGI (NCI/ADR-RES ovarian) | TGI (A549 NSCLC) | TGI (K-562 leukemia) | TGI (DU-145 prostate) | TGI (MOLT-4 leukemia) | TGI (RPMI-8226 leukemia) | TGI (HCT-116 colon) | TGI (HCT-15 colon) | TGI (BT-549 breast) | TGI (COLO 205 colon) | TGI (KM12 colon)

Cn1ccc(=Nc2ccc(NC(=O)c3ccc(N=c4ccn(C)c5ccc([N+](=O)[O-])cc45)cc3)cc2)cc1
98.2 µM: TGI (SF-268 CNS)
78.7 µM: TGI (OVCAR-3 ovarian)
73.2 µM: TGI (SF-539 CNS)
inactive: GI50 (LOX IMVI melanoma) 5.37 µM | GI50 (HOP-62 NSCLC) 8.25 µM | GI50 (SF-295 CNS) 12.8 µM | GI50 (MDA-MB-435) 6.53 µM | GI50 (CAKI-1 renal) > 100 µM | GI50 (HT29 colon) 7.54 µM | GI50 (SN12C renal) 5.09 µM | GI50 (OVCAR-8 ovarian) > 100 µM | GI50 (HL-60(TB) leukemia) 5.34 µM | GI50 (SF-539 CNS) 6.21 µM | GI50 (T-47D breast) 5.27 µM | GI50 (HCC-2998 colon) 3.85 µM | GI50 (A498 renal) > 100 µM | GI50 (U251 CNS) 0.437 µM | GI50 (CCRF-CEM leukemia) > 100 µM | GI50 (SK-MEL-5 melanoma) 20.3 µM | GI50 (OVCAR-3 ovarian) 15.2 µM | GI50 (OVCAR-5 ovarian) > 100 µM | GI50 (UO-31 renal) > 100 µM | GI50 (ACHN renal) > 100 µM | GI50 (NCI-H23 lung) 43.9 µM | GI50 (SF-268 CNS) 4.37 µM | GI50 (HOP-92 NSCLC) 42.4 µM | GI50 (SK-MEL-28 melanoma) 22.9 µM | GI50 (SNB-19 CNS) 0.923 µM | GI50 (SNB-75 CNS) 3.63 µM | GI50 (SR leukemia) 33 µM | GI50 (NCI-H226 lung) 74.3 µM | GI50 (PC-3 prostate) 9.2 µM | GI50 (UACC-62 melanoma) 17.8 µM | GI50 (EKVX NSCLC) 55.1 µM | GI50 (NCI-H522 lung) 6.88 µM | GI50 (IGROV1 ovarian) 11.2 µM | GI50 (SW-620 colon) 8.6 µM | GI50 (HS 578T breast) 16.4 µM | GI50 (NCI-H460 lung) 22.6 µM | GI50 (SK-OV-3 ovarian) > 100 µM | GI50 (M14 melanoma) > 100 µM | GI50 (MCF7 breast) 2.36 µM | GI50 (SK-MEL-2 melanoma) 79.1 µM | GI50 (UACC-257 melanoma) 12.5 µM | GI50 (NCI/ADR-RES ovarian) > 100 µM | GI50 (A549 NSCLC) 7.31 µM | GI50 (K-562 leukemia) 6.75 µM | GI50 (RXF 393 renal) 21.4 µM | GI50 (786-0 renal) 56.1 µM | GI50 (DU-145 prostate) 4.43 µM | GI50 (TK-10 renal) > 100 µM | GI50 (MOLT-4 leukemia) > 100 µM | GI50 (MDA-MB-231 breast) 6.82 µM | GI50 (RPMI-8226 leukemia) 3.54 µM | GI50 (HCT-116 colon) 3.76 µM | GI50 (MALME-3M melanoma) 2.41 µM | GI50 (HCT-15 colon) > 100 µM | GI50 (BT-549 breast) 71.5 µM | GI50 (COLO 205 colon) 3.94 µM | GI50 (KM12 colon) 7.26 µM
44.6 µM: TGI (RXF 393 renal)
92.6 µM: TGI (HS 578T breast)
> 100 µM: TGI (LOX IMVI melanoma) | TGI (HOP-62 NSCLC) | TGI (MDA-MB-435) | TGI (CAKI-1 renal) | TGI (HT29 colon) | TGI (SN12C renal) | TGI (OVCAR-8 ovarian) | TGI (HL-60(TB) leukemia) | TGI (T-47D breast) | TGI (HCC-2998 colon) | TGI (A498 renal) | TGI (U251 CNS) | TGI (CCRF-CEM leukemia) | TGI (SK-MEL-5 melanoma) | TGI (OVCAR-5 ovarian) | TGI (UO-31 renal) | TGI (ACHN renal) | TGI (NCI-H23 lung) | TGI (HOP-92 NSCLC) | TGI (SNB-19 CNS) | TGI (SR leukemia) | TGI (NCI-H226 lung) | TGI (PC-3 prostate) | TGI (UACC-62 melanoma) | TGI (EKVX NSCLC) | TGI (NCI-H522 lung) | TGI (IGROV1 ovarian) | TGI (SW-620 colon) | TGI (NCI-H460 lung) | TGI (SK-OV-3 ovarian) | TGI (M14 melanoma) | TGI (MCF7 breast) | TGI (SK-MEL-2 melanoma) | TGI (NCI/ADR-RES ovarian) | TGI (A549 NSCLC) | TGI (K-562 leukemia) | TGI (786-0 renal) | TGI (DU-145 prostate) | TGI (TK-10 renal) | TGI (MOLT-4 leukemia) | TGI (MDA-MB-231 breast) | TGI (RPMI-8226 leukemia) | TGI (HCT-116 colon) | TGI (HCT-15 colon) | TGI (BT-549 breast) | TGI (COLO 205 colon) | TGI (KM12 colon)
28.5 µM: TGI (SNB-75 CNS)
74.5 µM: TGI (UACC-257 melanoma)
92.3 µM: TGI (SK-MEL-28 melanoma)
72.6 µM: TGI (SF-295 CNS)
37.9 µM: TGI (MALME-3M melanoma)
